This passage reports IC50 results from US9321756B2, “Azole compounds as PIM inhibitors” (priority 2011, dated 2016).

pIC50: −log10 of the molar value.

In test [1] the target is full length recombinant Pim-1 (Homo sapiens (Human), UniProt P11309). Briefly: Pim enzyme assay (HTRF, phosphorylation of biotinylated-BAD (S112) peptide), Pim-1. The class given is biochemical. Conditions: HTRF, 10-point curve, high dose 1 uM, 2 h at RT; read-out: Pim_1_IC50. For orientation: TR-FRET usually uses a lanthanide donor and a delayed reading to cut background.

Test [2] has as its target full length recombinant Pim-2 (Homo sapiens (Human), UniProt Q9P1W9). Briefly: Pim enzyme assay (HTRF, phosphorylation of biotinylated-BAD (S112) peptide), Pim-2. The class given is biochemical. The settings on record: HTRF, 10-point curve, high dose 1 uM, 45 min at RT; read-out: Pim2_IC50.
For another test, the system named is KMS-12-BM myeloma cells. Briefly: Pim cell assay KMS12 (phospho-BAD and total BAD). The settings on record: Homo sapiens, 2 h, read-out: KMS12_IC50. It is filed as cell-based. The protocol:
The assay for determination of the antiproliferative activity of multiple Pim inhibitors in the KMS-12-BM myeloma cells measures levels of phospho-BAD and total BAD. It was conducted as follows: […] The cells were then incubated overnight at 37° C., 5% CO2. […] This dilution in DMSO was then diluted again into cell growth medium. […] The cell plates were then incubated with compound for 2 hours at 37° C., 5% CO2. After a two h incubation, the compound-containing medium was removed. […] The cell plates containing lysis buffer were then immediately stored at -70° C. These prepared lysates were then assayed for phospho and total BAD according to the manufacturer's protocols (Meso Scale Diagnostics, Cat#[…]-3 & #[…]-3). The plates were read on the MSD Sector Imager 6000, and results were calculated according to the assay protocols ((% Phosphoprotein=((2×Phospho signal)/(Phospho signal+Total signal))×100)).

Chain of full length recombinant Pim-1 (P11309 whole entry): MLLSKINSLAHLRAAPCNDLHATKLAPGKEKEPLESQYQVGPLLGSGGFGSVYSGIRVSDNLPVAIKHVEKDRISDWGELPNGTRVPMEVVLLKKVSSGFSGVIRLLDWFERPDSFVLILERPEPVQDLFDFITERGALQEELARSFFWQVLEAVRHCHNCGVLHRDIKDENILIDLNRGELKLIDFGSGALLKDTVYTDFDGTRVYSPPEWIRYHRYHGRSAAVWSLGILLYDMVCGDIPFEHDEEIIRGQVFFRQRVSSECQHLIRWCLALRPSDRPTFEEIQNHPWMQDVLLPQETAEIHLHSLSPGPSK
Chain of full length recombinant Pim-2 (Q9P1W9 whole entry): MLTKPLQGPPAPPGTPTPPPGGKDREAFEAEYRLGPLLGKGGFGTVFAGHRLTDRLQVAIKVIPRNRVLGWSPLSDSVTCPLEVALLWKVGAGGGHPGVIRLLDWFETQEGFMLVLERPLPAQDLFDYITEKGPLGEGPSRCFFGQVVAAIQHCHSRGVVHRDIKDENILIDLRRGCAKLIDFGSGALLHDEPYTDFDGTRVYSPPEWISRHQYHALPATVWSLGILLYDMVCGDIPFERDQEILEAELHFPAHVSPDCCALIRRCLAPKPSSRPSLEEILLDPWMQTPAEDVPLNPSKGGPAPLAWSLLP

Take `CC(C)Nc1nnc(-c2cc3c(-c4nccc(C5CC5)n4)c[nH]c3cc2F)o1` [Example 279, 5-(3-(4-cyclopropyl-2-pyrimidinyl)-6-fluoro-1H-indol-5-yl)-N-(1-methylethyl)-1,3,4-oxadiazol-2-amine]: the pIC50 was 8.62 in test [1], 8.73 in test [2] and 6.13 in the test with KMS-12-BM myeloma cells.
